From the supplement of paper PMC6045584

Columns and labels:
Assay in all cases: area under dose-response curve of surviving fraction (unscaled, Aref=0) (surviving fraction x log10(nM)); higher = more resistant
Details in all cases: exposure time: 5 days; dose range 0.5-1000 nM
AFIMOXIFENE = compound: CC/C(=C(\c1ccc(O)cc1)c1ccc(OCCN(C)C)cc1)c1ccccc1 [AFIMOXIFENE]
Procedure, shortened: (§1)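 Surviving fractions were fitted by 3-parameter logistic regression in the drc R package to give dose-response survival curves. They came from tumour cell lines treated for five days with eight inhibitor concentrations from 0.5 to 1000 nM and read by CellTiter-Glo luminescence against DMSO-only wells. The area under the curve is the unscaled activity area. It was calculated over log10 dose with Aref = 0.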

BMN-673 = compound: Cn1ncnc1[C@H]1c2n[nH]c(=O)c3cc(F)cc(c23)N[C@@H]1c1ccc(F)cc1 [BMN-673]
Procedure, shortened: as §1

LENVATINIB = compound: COc1cc2nccc(Oc3ccc(NC(=O)NC4CC4)c(Cl)c3)c2cc1C(N)=O [LENVATINIB]
Procedure, shortened: as §1

[1] = compound: COc1ccc(-c2cc3c(C)nc(N)nc3n([C@H]3CC[C@H](OCCO)CC3)c2=O)cn1
Procedure, shortened: as §1

BLEOMYCIN = compound: Cc1c(N)nc([C@H](CC(N)=O)NC[C@H](N)C(N)=O)nc1C(=O)N[C@H](C(=O)N[C@H](C)[C@@H](O)[C@H](C)C(=O)N[C@H](C(=O)NCCc1nc(-c2nc(C(=O)NCCC[S+](C)C)cs2)cs1)[C@@H](C)O)[C@@H](OC1OC(CO)C(O)C(O)C1OC1OC(CO)C(O)C(OC(N)=O)C1O)c1cnc[nH]1 [BLEOMYCIN]
Procedure, shortened: as §1

[2] = compound: CCc1cc(Nc2nccc(-c3c(-c4ccc(OC)c(C(=O)Nc5c(F)cccc5F)c4)nc4ccccn34)n2)c(OC)cc1N1CCC(N2CCN(S(C)(=O)=O)CC2)CC1
Procedure, shortened: as §1

MK-1775 = compound: C=CCn1c(=O)c2cnc(Nc3ccc(N4CCN(C)CC4)cc3)nc2n1-c1cccc(C(C)(C)O)n1 [MK-1775]
Procedure, shortened: as §1

BEZ-235 = compound: Cn1c(=O)n(-c2ccc(C(C)(C)C#N)cc2)c2c3cc(-c4cnc5ccccc5c4)ccc3ncc21 [BEZ-235]
Procedure, shortened: as §1

VORINOSTAT = compound: O=C(CCCCCCC(=O)Nc1ccccc1)NO [VORINOSTAT]
Procedure, shortened: as §1

[3] = compound: C[C@@H]1CN(CC(=O)Nc2ccc3c(c2)Cc2cccc(-c4cc(=O)cc(N5CCOCC5)o4)c2S3)C[C@H](C)O1
Procedure, shortened: as §1

Test System: CCK81 LARGE INTESTINE
- area under dose-response curve (AFIMOXIFENE): 2.84
- area under dose-response curve (BMN-673): 2.04

Test System: G292 BONE
- area under dose-response curve (LENVATINIB): 2.62
- area under dose-response curve [1]: 1.89
- area under dose-response curve (BLEOMYCIN): 2.07
- area under dose-response curve [2]: 3.33
- area under dose-response curve (MK-1775): 2.71
- area under dose-response curve (BEZ-235): 2.18
- area under dose-response curve (VORINOSTAT): 3.05
- area under dose-response curve (AFIMOXIFENE): 3.18
- area under dose-response curve [3]: 3.2
- area under dose-response curve (BMN-673): 2.57

Test System: HCC38 BREAST
- area under dose-response curve (LENVATINIB): 3.98
- area under dose-response curve [1]: 2.96
- area under dose-response curve (BLEOMYCIN): 2.44
- area under dose-response curve (MK-1775): 2.33
- area under dose-response curve (BEZ-235): 2.59
- area under dose-response curve (VORINOSTAT): 4
- area under dose-response curve (AFIMOXIFENE): 3.66
- area under dose-response curve [3]: 2.58
- area under dose-response curve (BMN-673): 2

Test System: HCC70 BREAST
- area under dose-response curve (LENVATINIB): 3.79
- area under dose-response curve [1]: 2.19
- area under dose-response curve (BLEOMYCIN): 2.77
- area under dose-response curve [2]: 3.48
- area under dose-response curve (MK-1775): 2.24
- area under dose-response curve (BEZ-235): 2.57
- area under dose-response curve (VORINOSTAT): 3.13
- area under dose-response curve (AFIMOXIFENE): 3.6
- area under dose-response curve [3]: 3.65
- area under dose-response curve (BMN-673): 2.62

Test System: HMLE3 BREAST
- area under dose-response curve (LENVATINIB): 3.05
- area under dose-response curve [1]: 2.08
- area under dose-response curve (BLEOMYCIN): 3
- area under dose-response curve [2]: 3.22
- area under dose-response curve (MK-1775): 2.87
- area under dose-response curve (BEZ-235): 2.13
- area under dose-response curve (AFIMOXIFENE): 3.71
- area under dose-response curve [3]: 3.21
- area under dose-response curve (BMN-673): 2.43

Test System: HMT3552 BREAST
- area under dose-response curve (AFIMOXIFENE): 3.53
- area under dose-response curve (BMN-673): 2.34

Test System: HS578T BREAST
- area under dose-response curve [1]: 1.97
- area under dose-response curve (BLEOMYCIN): 2.21
- area under dose-response curve [2]: 2.93
- area under dose-response curve (MK-1775): 1.96
- area under dose-response curve (BEZ-235): 2.13
- area under dose-response curve (VORINOSTAT): 2.86
- area under dose-response curve (AFIMOXIFENE): 3.68
- area under dose-response curve [3]: 2.86
- area under dose-response curve (BMN-673): 2.94
